Results as given in patent US20240122899A1, “COMPOSITION FOR STIMULATING IMMUNE CELL METABOLISM” (SUNTORY HOLDINGS LIMITED, priority 2021, published 2024).

What was measured:
[1] = tested on: human peripheral blood mononuclear cells (PBMCs); experiment: Mitochondrial stress test / oxygen consumption rate (XFe96 flux analyzer) in human PBMCs; type: cell-based; details: final concentration of 10 μM, 30 μM, or 100 μM
Procedure: The effect of the compound (L-ergothioneine) of the present invention on mitochondrial function was analyzed. Ergothioneine was added to human peripheral blood mononuclear cells (PBMCs) under the following conditions. The extracellular oxygen level and pH were measured in real time using an XFe96 flux analyzer (available from Agilent Technologies). XFe technology uses solid-state sensors to simultaneously measure both oxygen consumption rate (OCR) and extracellular acidification rate (ECAR) to determine effects on oxidative phosphorylation (OXPHOS) and glycolysis simultaneously. […] Then, the cells were sequentially exposed to various mitochondrial function inhibitors to evaluate cell metabolism. (Conditions for adding ergothioneine to human PBMCs) Human PBMCs were kept in an XF assay medium (XF RPMI1640 medium). Here, L-ergothioneine was adjusted to a final concentration of 0, 10, 30, or 100 μM. The cells (30,000 cells/50 μL/well) were seeded onto an XF96-well cell culture plate coated with PDL and were centrifuged at 200 g for one minute so that the cells were adhered to the plate. After culturing at 37° C. in the absence of CO2 for 20 minutes, the XF assay medium (130 μL) was added gently, followed by further culturing at 37° C. in the absence of CO2 for 40 minutes. The following mitochondrial stress test was performed on the obtained human PBMCs to which ergothioneine was added. An XF Mit Stress Kit (available from Agilent Technologies) was used for the experiment. […] The results obtained are shown in FIG. 1A (basal respiration), FIG. 1B (ATP production), and FIG. 1C (maximum respiration) to facilitate understanding of a possible mechanism of mitochondria metabolism. […] FIGS. 1A to 1C show the resulting values expressed as mean±standard deviation. A significance test was performed by Dunnett's test (test by multiple comparison assuming equal variance, p-value) using an Excel analysis tool to obtain test results relative to the final concentration (0 μM) of ergothioneine (*: p<0.05, **: p<0.01).

[2] = mice orally administered, versus mice not administered; cited from earlier work
[3] = tested on: IL-6, IL-12, IL-1β, and IL-10; details: absence of the TLR ligand; ergothioneine concentration 0 or 10 mM; cited from earlier work

C[N+](C)(C)[C@@H](Cc1c[nH]c(=S)[nH]1)C(=O)[O-] [ergothioneine, L-ergothioneine]
oxygen consumption rate (OCR) of human PBMCs over time ([1]; FIG. 2): increase
OCR related to basal respiration (mitochondrial basal respiration) ([1]; relative to 0 μM, FIG. 1A): significant increase
OCR related to ATP-related respiration (mitochondrial ATP production) ([1]; relative to 0 μM, FIG. 1B): significant increase
OCR related to maximum respiration (mitochondrial maximum respiration) ([1]; relative to 0 μM, FIG. 1C): significant increase
peritesticular fat weight [2]: lower
triglyceride (neutral fat) level in plasma [2]: lower
detection of IL-6, IL-12, IL-1β, and IL-10 [3]: none of IL-6, IL-12, IL-1β, and IL-10 was detected
